# Data as given in patent US9730445B2, “Herbicidal compositions comprising 4-amino-3-chloro-5-fluoro-6-(4-chloro-2-fluoro-3-methoxyphenyl) pyridine-2-carboxylic acid or a derivative thereof and fungicides” (DOW AGROSCIENCES LLC, priority 2013, dated 2017).
# Where “and” joins values, the source holds several entries; their conditions need not be identical. Equal values may be shown once.
# What was measured:
# DIGSA = experiment: Postemergence foliar-applied weed control, direct-seeded rice (greenhouse); type: in vivo, Digitaria sanguinalis (L.) Scop. (large crabgrass)
# FIMMI = experiment: In-water applied weed control, transplanted paddy rice (greenhouse); type: in vivo, Fimbristylis miliacea (L.) Vahl (globe fringerush)
# Method: Weed seeds or nutlets of the desired test plant species were planted in puddled soil (mud) prepared by mixing a shredded, non-sterilized mineral soil (50.5 percent silt, 25.5 percent clay, and 24 percent sand, with a pH of about 7.6 and an organic matter content of about 2.9 percent) and water at a 1:1 volumetric ratio. The prepared mud was dispensed in 365 mL aliquots into 16-ounce (oz.) non-perforated plastic pots with a surface area of 86.59 square centimeters (cm^2) leaving a headspace of 3 centimeters (cm) in each pot. Rice seeds were planted in Sun Gro MetroMix® 306 planting mixture, which typically has a pH of 6.0 to 6.8 and an organic matter content of about 30 percent, in plastic plug trays. Seedlings at the second or third leaf stage of growth were transplanted into 860 mL of mud contained in 32-oz. non-perforated plastic pots with a surface area of 86.59 cm^2 4 days prior to herbicide application. The paddy was created by filling the headspace of the pots with 2.5 to 3 cm of water. When required to ensure good germination and healthy plants, a fungicide treatment and/or other chemical or physical treatment was applied. The plants were grown for 4-22 days in a greenhouse with an approximate 14 hour (h) photoperiod which was maintained at about 29° C. during the day and about 26° C. during the night. Nutrients were added as Osmocote® (17:6:10, N:P:K+minor nutrients) at 2 g per cup. Water was added on a regular basis to maintain the paddy flood, and supplemental lighting was provided with overhead metal halide 1000-Watt lamps as necessary. The plants were employed for testing when they reached the first through fourth true leaf stage. […]
# Treatment requirements for each compound or fungicidal component were calculated based upon the rates being tested, the concentration of active ingredient or acid equivalent in the formulation, an application volume of 2 mL per component per pot, and an application area of 86.59 cm^2 per pot.
# For formulated compounds, a measured amount was placed in an individual 100 or 200 mL glass vial and was dissolved in a volume of 1.25% (v/v) Agri-Dex® crop oil concentrate to obtain application solutions. […]
# The treated plants and control plants were placed in a greenhouse as described above and water was added as needed to maintain a paddy flood. After approximately 3 weeks the condition of the test plants as compared with that of the untreated plants was determined visually and scored on a scale of 0 to 100 percent where 0 corresponds to no injury or growth inhibition and 100 corresponds to complete kill. […]
compound,measurement,setting,value
COc1c(Cl)ccc(-c2nc(C(=O)OCc3ccccc3)c(Cl)c(N)c2F)c1F [Compound A Benzyl Ester],Visual Weed Control (%)—20 DAA DIGSA Obs,"DIGSA; 20 DAA, r21-23 ester 8/16/32 g ae/ha alone, r24-25 isotianil 100/200 g ai/ha alone, r26-31 ester 8/16/32 at each of 100, 200",20% and 30% and 40%
same,Visual Weed Control (%)—21 DAA DIGSA Obs,"DIGSA; 21 DAA, r38-39 ester 8/16 g ae/ha alone, r40 isotianil 380 g ai/ha alone, r41-42 ester 8/16 + 380",15% and 25%
same,Visual Weed Control (%) - 22 DAA DIGSA Obs,"DIGSA; 22 DAA, r22-24 ester 8/16/32 g ae/ha alone, r25-27 difenoconazole 50/100/200 g ai/ha alone, r28-36 ester 8/16/32 at each of 50, 100, 200",15% and 23% and 28%
same,Visual Weed Control (%) - 22 DAA FIMMI Obs,FIMMI; Compound A Benzyl Ester 4.38 g ae/ha,50%
same,Visual Weed Control (%) - 22 DAA FIMMI Obs,FIMMI; Compound A Benzyl Ester 8.75 g ae/ha,80%
same,Visual Weed Control (%) - 22 DAA FIMMI Obs,FIMMI; Compound A Benzyl Ester 17.5 g ae/ha,100%
